Assay results published in ChEMBL document CHEMBL1201862, “PubChem BioAssay data set” (2004).
Active and inactive are the calls of the source.

Legend:
[1] = molecular target: Cytochrome P450 3A4 (Homo sapiens, UniProt P08684); settings: Potency;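 further: confirmatory qHTS run detecting inhibitors and substrates of CYP3A4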
[2] = molecular target: T1, Short transient receptor potential channel 4 (Mus musculus, UniProt Q9QUQ5); assay: mouse TRPC4 channel activators, dose response, cell-based, HEK293 TRPC4/mu-opioid, Fluo-4 calcium (AID 434937); format: functional
T1 sequence (Q9QUQ5 whole entry): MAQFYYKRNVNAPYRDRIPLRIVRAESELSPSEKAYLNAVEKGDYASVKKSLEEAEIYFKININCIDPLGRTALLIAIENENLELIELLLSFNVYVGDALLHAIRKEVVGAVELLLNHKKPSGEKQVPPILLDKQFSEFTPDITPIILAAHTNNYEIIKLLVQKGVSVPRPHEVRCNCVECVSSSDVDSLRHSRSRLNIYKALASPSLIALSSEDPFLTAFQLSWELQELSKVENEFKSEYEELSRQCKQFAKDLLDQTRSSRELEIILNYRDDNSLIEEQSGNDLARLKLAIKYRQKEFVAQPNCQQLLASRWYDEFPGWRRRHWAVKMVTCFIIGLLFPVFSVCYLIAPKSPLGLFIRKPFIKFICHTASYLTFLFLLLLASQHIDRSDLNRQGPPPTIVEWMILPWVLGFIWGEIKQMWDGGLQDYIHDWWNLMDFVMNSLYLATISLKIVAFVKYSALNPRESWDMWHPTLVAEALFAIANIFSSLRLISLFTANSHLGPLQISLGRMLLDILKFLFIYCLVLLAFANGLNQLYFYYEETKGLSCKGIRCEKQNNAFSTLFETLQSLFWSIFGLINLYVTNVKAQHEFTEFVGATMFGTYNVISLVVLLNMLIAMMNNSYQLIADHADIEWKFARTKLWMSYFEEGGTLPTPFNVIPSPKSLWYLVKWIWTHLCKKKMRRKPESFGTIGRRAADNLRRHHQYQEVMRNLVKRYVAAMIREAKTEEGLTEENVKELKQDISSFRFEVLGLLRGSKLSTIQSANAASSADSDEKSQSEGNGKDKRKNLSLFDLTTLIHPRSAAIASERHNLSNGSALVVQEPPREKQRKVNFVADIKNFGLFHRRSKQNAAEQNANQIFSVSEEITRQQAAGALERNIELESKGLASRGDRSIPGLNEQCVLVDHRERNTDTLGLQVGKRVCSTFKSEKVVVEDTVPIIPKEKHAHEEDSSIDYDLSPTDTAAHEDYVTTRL

[3] = molecular target: Prothrombin (Homo sapiens, UniProt P00734); assay: Thrombin 1536 HTS Dose Response Confirmation. [Related pubchem assays: 1046 (Thrombin 1536 HTS; hits were confirmed in this assay)]; format: functional
[4] = molecular target: T2, Coagulation factor XII (Homo sapiens, UniProt P00748); format: functional;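 further: activated factor XIIa alpha cleaving a fluorogenic AMC peptide substrate; inhibitor potency from loss of enzyme activity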
T2 sequence (P00748 whole entry): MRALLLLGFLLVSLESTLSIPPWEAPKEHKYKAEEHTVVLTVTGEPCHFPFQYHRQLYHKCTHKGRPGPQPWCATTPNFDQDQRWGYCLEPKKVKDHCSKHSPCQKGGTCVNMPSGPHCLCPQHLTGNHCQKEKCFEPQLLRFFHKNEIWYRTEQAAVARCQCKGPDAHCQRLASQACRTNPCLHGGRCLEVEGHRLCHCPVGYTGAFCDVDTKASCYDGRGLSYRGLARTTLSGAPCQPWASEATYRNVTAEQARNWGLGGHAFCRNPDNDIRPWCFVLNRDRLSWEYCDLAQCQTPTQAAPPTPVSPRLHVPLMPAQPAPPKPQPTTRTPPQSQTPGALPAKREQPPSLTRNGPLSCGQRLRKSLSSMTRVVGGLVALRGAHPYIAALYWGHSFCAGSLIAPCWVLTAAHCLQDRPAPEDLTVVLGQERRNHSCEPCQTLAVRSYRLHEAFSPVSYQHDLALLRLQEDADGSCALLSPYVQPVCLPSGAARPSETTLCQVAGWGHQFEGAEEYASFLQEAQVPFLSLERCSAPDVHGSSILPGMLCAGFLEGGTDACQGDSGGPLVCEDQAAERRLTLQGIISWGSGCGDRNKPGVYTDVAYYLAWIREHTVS

[5] = M. tuberculosis H37Rv growth inhibitors, H37Rv strain (AID 1626); format: functional
[6] = A cytotoxicity screen of small molecule inhibitors of the PhoP region in Salmonella typhi identified in the primary screen. [Related pubchem assays: 1850, 1864, 1985 ]; format: functional
[7] = molecular target: DNA dC->dU-editing enzyme APOBEC-3A (Homo sapiens, UniProt P31941); assay: APOBEC3A DNA deaminase inhibitors, dose response, biochemical (AID 504722); format: functional
[8] = molecular target: DNA dC->dU-editing enzyme APOBEC-3G (Homo sapiens, UniProt Q9HC16); assay: Dose Response confirmation of small molecule APOBEC3G DNA Deaminase Inhibitors via a fluorescence-based single-stranded DNA deaminase assay. [Related pubchem assays (depositor defined):AID493012, AID493028]; format: functional
[9] = molecular target: T3, Mannose-6-phosphate isomerase (Homo sapiens, UniProt P34949); assay: PMI enzyme inhibitors, confirmation, biochemical, fluorescence intensity (AID 1535)
T3 sequence (P34949 whole entry): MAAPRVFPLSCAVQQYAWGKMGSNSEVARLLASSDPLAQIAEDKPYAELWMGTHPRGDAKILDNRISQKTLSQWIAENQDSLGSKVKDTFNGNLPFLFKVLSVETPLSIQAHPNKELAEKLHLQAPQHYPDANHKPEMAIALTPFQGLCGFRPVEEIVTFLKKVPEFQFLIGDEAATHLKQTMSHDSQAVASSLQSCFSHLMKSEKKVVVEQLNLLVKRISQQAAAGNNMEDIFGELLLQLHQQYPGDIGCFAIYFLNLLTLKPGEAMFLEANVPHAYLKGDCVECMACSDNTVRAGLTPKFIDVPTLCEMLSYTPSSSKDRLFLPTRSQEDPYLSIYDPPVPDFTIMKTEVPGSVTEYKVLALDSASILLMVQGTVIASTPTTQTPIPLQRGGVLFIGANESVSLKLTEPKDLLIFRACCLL

[10] = molecular target: T4, Phosphomannomutase 2 (Homo sapiens, UniProt O15305); assay: Counter screen SAR assay for PMM2 inhibitors via a fluorescence intensity assay. [Related pubchem assays (depositor defined):AID1545, AID1574]
T4 sequence (O15305 whole entry): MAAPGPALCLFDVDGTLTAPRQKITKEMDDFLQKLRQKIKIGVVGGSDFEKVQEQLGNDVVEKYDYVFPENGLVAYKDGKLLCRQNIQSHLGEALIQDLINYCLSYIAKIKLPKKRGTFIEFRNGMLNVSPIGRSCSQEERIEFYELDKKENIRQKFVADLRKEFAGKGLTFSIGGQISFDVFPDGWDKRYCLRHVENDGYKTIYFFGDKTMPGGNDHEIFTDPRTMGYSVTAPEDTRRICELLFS

[11] = A Cell Based Secondary Assay To Explore Cytotoxicity of Compounds that Sensitize Mycobacterium Tuberculosis to Beta-Lactam Antibiotics.; format: functional
[12] = molecular target: G-protein coupled receptor 55 (Homo sapiens, UniProt Q9Y2T6); assay: GPR55 antagonists blocking LPI-driven arrestin recruitment, primary screen, imaging, U2OS, beta-arrestin-GFP, LPI agonist (AID 2013); format: functional;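 further: antagonist potency measured as reduced agonist-driven arrestin aggregation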
[13] = molecular target: Estrogen receptor beta (Homo sapiens, UniProt Q92731); assay: ERβ–SRC-3 coactivator interaction inhibitors, confirmation, orthogonal assay, biochemical, ELISA, streptavidin-HRP readout (AID 1060)
[14] = molecular target: Large T antigen (Simian virus 40, UniProt P03070); format: functional, Betapolyomavirus macacae;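 further: Confirmatory-stage PubChem screen for compounds that inhibit SV40 T antigen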
[15] = molecular target: T5, Protein skinhead-1 (Caenorhabditis elegans, UniProt P34707); format: functional
T5 sequence (P34707 whole entry): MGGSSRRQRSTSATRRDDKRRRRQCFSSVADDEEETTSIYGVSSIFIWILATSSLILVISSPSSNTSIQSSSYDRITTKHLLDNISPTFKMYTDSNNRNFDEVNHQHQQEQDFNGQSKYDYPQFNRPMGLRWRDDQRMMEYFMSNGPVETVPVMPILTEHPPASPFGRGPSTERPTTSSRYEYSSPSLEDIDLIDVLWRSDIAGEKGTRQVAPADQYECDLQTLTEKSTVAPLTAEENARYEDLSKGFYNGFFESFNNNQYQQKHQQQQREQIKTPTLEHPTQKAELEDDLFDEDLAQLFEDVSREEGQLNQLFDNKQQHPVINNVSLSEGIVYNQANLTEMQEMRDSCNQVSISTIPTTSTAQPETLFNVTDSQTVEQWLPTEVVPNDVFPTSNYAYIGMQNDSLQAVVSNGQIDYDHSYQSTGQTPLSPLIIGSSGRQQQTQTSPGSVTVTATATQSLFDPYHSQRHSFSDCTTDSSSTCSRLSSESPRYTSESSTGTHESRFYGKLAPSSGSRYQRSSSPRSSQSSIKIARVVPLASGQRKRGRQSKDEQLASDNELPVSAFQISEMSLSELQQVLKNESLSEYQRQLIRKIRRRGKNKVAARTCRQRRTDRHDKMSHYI

[16] = HEp-2 cell cytotoxicity, dose response, cytotoxicity control for RSV inhibitor project, HTS (AID 2410); format: functional; settings: human respiratory syncytial virus
[17] = molecular target: T6, Rac GTPase-activating protein 1 (Homo sapiens, UniProt Q9H0H5); assay: MgcRacGAP GTPase-activating activity inhibitors, confirmation, biochemical, ADP Hunter fluorescence, primary and confirmatory (AID 624330); format: functional
T6 sequence (Q9H0H5 whole entry): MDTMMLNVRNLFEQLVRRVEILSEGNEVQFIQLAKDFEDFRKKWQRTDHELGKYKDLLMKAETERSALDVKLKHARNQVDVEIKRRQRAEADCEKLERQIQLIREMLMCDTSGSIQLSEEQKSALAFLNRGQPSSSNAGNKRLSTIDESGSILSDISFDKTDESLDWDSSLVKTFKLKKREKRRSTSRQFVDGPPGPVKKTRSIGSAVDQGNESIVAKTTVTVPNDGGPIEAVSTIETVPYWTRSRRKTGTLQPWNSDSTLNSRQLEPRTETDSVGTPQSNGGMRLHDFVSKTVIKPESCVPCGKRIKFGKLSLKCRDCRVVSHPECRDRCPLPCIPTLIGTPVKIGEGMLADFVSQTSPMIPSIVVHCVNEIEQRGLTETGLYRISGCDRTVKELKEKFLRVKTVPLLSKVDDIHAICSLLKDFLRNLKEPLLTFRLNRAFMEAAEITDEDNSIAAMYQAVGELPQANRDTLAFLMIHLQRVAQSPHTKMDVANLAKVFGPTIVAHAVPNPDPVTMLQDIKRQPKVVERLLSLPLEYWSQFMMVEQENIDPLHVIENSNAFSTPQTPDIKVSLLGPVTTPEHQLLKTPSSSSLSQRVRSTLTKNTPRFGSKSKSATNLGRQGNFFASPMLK

[18] = growth suppression of PTEN-null colon cells, dose response, cell-based, HCT116 PTEN knockout (AID 1047); format: functional;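 further: HCT116 colon tumor cells with PTEN knocked out; cells exposed to compound for 60 hours before readout; potency for loss of cell viability measured by luminescence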
[19] = growth suppression of beta-catenin-knockout colon cells, dose response, cell-based, HCT116, human colon tumor (AID 1045); format: functional;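 further: HCT116 colon tumor cells with beta catenin knocked out; cells exposed to compound for 60 hours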

DNA dC->dU-editing enzyme APOBEC-3A, sequence (P31941 whole entry): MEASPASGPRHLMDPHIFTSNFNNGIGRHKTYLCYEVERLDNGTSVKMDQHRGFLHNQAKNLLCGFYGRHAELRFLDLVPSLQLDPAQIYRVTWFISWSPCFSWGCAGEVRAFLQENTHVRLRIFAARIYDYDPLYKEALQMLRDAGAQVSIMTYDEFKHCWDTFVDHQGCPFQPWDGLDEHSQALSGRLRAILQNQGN
DNA dC->dU-editing enzyme APOBEC-3G, sequence (Q9HC16 whole entry): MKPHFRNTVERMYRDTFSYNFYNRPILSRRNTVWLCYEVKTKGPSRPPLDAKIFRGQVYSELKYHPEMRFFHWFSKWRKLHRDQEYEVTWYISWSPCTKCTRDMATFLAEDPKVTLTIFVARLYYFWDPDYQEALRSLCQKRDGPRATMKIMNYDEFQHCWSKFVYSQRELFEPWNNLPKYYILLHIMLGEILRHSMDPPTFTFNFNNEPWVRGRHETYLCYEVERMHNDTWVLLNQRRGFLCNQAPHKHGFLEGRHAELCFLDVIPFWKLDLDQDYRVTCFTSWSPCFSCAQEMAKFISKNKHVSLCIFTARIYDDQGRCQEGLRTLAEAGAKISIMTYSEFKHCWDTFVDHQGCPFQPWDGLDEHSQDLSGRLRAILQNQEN
G-protein coupled receptor 55, sequence (Q9Y2T6 whole entry): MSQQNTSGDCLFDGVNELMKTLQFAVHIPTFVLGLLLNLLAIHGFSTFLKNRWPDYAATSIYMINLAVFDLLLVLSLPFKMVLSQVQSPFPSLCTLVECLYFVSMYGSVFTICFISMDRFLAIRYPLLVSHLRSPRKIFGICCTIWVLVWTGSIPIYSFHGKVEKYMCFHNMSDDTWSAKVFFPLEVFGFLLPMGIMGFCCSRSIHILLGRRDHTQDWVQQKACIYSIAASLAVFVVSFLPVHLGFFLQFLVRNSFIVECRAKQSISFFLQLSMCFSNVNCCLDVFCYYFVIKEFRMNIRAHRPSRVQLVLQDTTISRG
Cytochrome P450 3A4, sequence (P08684 whole entry): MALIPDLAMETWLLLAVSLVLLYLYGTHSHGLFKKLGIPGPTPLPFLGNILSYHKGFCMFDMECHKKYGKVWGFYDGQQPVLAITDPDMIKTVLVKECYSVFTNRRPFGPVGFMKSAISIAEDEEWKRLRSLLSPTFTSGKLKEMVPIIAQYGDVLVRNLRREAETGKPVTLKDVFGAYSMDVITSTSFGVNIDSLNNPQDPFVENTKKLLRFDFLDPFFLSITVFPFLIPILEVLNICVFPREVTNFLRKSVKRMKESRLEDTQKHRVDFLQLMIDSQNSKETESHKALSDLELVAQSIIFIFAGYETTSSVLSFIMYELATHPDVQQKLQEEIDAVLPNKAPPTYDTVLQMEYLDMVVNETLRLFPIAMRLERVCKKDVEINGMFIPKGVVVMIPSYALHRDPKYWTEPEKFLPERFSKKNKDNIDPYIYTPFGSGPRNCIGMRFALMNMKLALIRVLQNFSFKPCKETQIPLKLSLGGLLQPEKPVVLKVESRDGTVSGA
Large T antigen, sequence (P03070 whole entry): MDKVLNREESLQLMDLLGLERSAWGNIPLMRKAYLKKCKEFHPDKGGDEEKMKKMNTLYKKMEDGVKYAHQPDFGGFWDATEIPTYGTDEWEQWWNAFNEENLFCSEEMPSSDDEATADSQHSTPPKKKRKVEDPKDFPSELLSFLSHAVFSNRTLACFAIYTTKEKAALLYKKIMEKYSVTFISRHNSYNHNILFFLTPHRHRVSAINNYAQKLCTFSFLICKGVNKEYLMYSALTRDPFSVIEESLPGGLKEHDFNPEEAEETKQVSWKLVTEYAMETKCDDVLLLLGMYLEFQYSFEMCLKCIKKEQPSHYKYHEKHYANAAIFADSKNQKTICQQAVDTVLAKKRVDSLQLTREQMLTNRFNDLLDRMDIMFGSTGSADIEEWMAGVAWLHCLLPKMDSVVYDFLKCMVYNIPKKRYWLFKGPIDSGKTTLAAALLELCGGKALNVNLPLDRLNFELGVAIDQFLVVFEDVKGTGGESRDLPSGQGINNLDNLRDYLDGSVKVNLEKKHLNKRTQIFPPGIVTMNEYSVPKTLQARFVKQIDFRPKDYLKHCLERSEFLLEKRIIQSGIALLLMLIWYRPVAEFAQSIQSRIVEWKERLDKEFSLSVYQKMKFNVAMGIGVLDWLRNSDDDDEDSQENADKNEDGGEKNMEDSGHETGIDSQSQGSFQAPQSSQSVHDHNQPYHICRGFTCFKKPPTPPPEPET
Estrogen receptor beta, sequence (Q92731 whole entry): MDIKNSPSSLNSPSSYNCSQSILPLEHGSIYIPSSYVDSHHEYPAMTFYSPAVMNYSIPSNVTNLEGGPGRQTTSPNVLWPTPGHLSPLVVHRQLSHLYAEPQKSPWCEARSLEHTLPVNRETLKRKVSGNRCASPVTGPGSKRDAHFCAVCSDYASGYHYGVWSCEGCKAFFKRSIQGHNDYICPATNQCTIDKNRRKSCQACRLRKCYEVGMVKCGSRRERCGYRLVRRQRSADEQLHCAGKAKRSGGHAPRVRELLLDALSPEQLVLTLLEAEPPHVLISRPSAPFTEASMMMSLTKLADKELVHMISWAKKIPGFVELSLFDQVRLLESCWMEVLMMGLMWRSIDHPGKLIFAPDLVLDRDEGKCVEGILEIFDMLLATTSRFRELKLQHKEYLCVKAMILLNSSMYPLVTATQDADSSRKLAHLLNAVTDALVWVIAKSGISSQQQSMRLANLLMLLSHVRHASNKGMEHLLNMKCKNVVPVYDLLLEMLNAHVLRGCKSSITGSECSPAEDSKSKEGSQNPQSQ

COC(=O)[C@@H]1C[C@@H]2CC[C@@H](O)C[C@@H]2N1Cc1ccc(C(F)(F)F)cc1
AC50 [1]: 10 µM (inconclusive)

Cc1c(CN2CCC(n3nccc3NC(=O)C3CC3)CC2)[nH]c2ccccc12
EC50 [2]: 0.596 µM (active)

CN1C(=O)/C(=N/OC(=O)c2ccccc2)c2ccccc21
IC50 [3]: 5.05 µM (active) | IC50 [4]: 4.93 µM (active)

CC(/C=C(\O)c1ccc(C)o1)=N\c1ccc2c(c1)OCO2
IC50 [5]: > 100 µM (active)

COc1ccc(/N=C2\C(=O)Nc3ccccc32)cc1
IC50 [5]: > 100 µM (active)

Cc1cc[n+](CC(=O)c2ccc(NC(=O)c3ccccc3)cc2)cc1
EC50 [6]: > 50 µM (active)

COc1ccc(-c2coc3c(O)c(OC)ccc3c2=O)cc1 [RETUSIN 7-METHYL ETHER]
AC50 [1]: 31.6 µM (inconclusive)

CCOC(=O)c1cn[nH]c1N
IC50 [5]: > 100 µM (active)

COc1ccc(/C=N/n2c(S)nnc2-c2cc(C)[nH]n2)cc1
IC50 [7]: > 100 µM (inactive) | IC50 [8]: 3.83 µM (active)

Cc1c(Cl)cccc1/N=c1\ssnc1Cl
IC50 [9]: > 100 µM (inactive) | IC50 [10]: > 100 µM (inactive)

Cc1cc(=O)oc2c(CN(C)Cc3ccccc3)c(O)ccc12
EC50 [6]: > 50 µM (active)

COc1ccc(NC(=O)CN2CCN(C3c4ccccc4-c4ccccc43)CC2)c(OC)c1
CC50 [11]: > 40 µM (active) | IC50 [12]: 2.19 µM (active)

O=[N+]([O-])c1c(Br)cccc1/N=c1\ssnc1Cl
IC50 [9]: 7.37 µM (active) | IC50 [10]: 4.8 µM (active)

CC1(C)C(=O)Nc2ccccc2N1C(=O)COc1ccc(S(=O)(=O)N2CCOCC2)cc1Cl
IC50 [13]: < 0.023 µM (not active)

CCOC(=O)c1c(NC(=O)C2=C(C)N=C(S)NC2c2ccc(CC)cc2)sc(C)c1C (centres undefined)
IC50 [12]: 1.64 µM (active)

Clc1nss/c1=N\c1cnc2ccccc2c1
IC50 [9]: 67.2 µM (active) | IC50 [10]: > 100 µM (inactive)

CC(/C=N/n1c(S)nnc1-c1ccncc1)=C\c1ccco1
IC50 [14]: 45 µM (active) | IC50 [7]: > 100 µM (inactive) | IC50 [8]: 2.71 µM (active)

COc1ccccc1C1CN(c2ccc(F)cc2F)N=C1c1cccs1 (centres undefined)
IC50 [15]: > 100 µM (inactive) | EC50 [6]: > 50 µM (active)

Cc1cc(=O)cc2oc3cc(N)c(-c4c(C)cc(O)cc4O)c(C)c3nc1-2
AC50 [1]: 39.8 µM (inconclusive)

COc1cc2c(cc1OC)C(C)N(C(=O)C(NC(=O)c1ccccc1)C(C)C)CC2 (centres undefined)
EC50 [2]: 5.96 µM (active)

CC(C)OC(=O)c1ccc(NC(=O)c2cncc(Br)c2)cc1
CC50 [16]: > 50 µM (active) | IC50 [5]: > 100 µM (active)

Sc1nnc(-c2ccncc2)n1/N=C/C=C/c1ccco1
IC50 [7]: 26.7 µM (active) | IC50 [4]: 45.3 µM (active) | IC50 [17]: 81.9 µM (active) | IC50 [8]: 2.54 µM (active)

Cc1cccc(N(C(=O)CCC(=O)Nc2ccccn2)C(C(=O)NC(C)C)c2ccc(O)cc2)c1 (centres undefined)
EC50 [6]: > 50 µM (active)

COc1ccc(OCC(O)Cn2c(=N)n(Cc3ccccc3)c3ccccc32)cc1 (centres undefined)
EC50 [18]: 7.31 µM (active) | IC50 [12]: 3.61 µM (active) | EC50 [19]: 7.38 µM (active)
